Source: patent publication US20240082342A1, “PEPTIDE THERAPEUTICS FOR INCREASING LUNG CELL VIABILITY” (BOARD OF REGENTS, THE UNIVERSITY OF TEXAS SYSTEM, priority 2018, published 2024)
Entries after “also recorded” stand apart in the source; their conditions may differ.

Columns and labels:
Assay type in all cases: in vivo, mouse
A2Cs of PAI-1^−/− mice = assay: Tobacco smoke or repeated bleomycin exposure of PAI-1-/- mice; settings: for IHC TRF1 or TRF2 antigen expression / telomerase enzyme activity (trapeze) / telomere length: PAI-1-/- mice; for IHC TRF1 or TRF2 antigen expression / telomerase enzyme activity (trapeze): TS; for telomere length: smoke or BLM; for p53, Acp53, S15p53, cleaved caspase-3, β-galactosidase, SIAH1/2, PNUTS, TRF1, TRF2, TERT (Western blot): 8X-BLM; for telomere length (qPCR): 20 weeks TS; for p53, Acp53, S15p53, cleaved caspase-3, β-galactosidase in AT2 cells (Western blot): CS 20 weeks
Method: (§1) To analyze the effect of cigarette smoke, mice were exposed to passive smoke from 40 research cigarettes over a 2-hour period once (2 h) or twice (4 h) daily for 5 days/week for 20 weeks (˜90 mg/m^3 total solid particulates) using a mechanical smoking chamber (Teague Enterprises, Davis, CA). Control mice were exposed to ambient air. At the 18th week, peptide treatment at a dosage of 30 μg/20 g body weight was initiated and continued on a daily basis for the next 14 days. At the end of the experiment, the mice were euthanized and used for the experiments.
(§2) To analyze the effect of BLM, mice were exposed to BLM (40 μg/20 g body weight) once per two week for 16 weeks. Control mice were exposed to normal saline. At 14th week the peptide treatment at a dosage of 30 μg/20 g body weight was initiated and continued on a daily basis for the next 14 days. At the end of the experiment, the mice were euthanized and used for the experiments.
(§3) To test the effect of chronic TS exposure induced lung injury, these mice were exposed to passive TS from 40 research cigarettes over a 4 h period 5 days/week for 20 weeks (˜90 mg/m3 total solid particulates) using a mechanical smoking chamber (Teague Enterprises, Davis, CA) as described earlier. (Bhandary et al, 2015). Control mice were kept in ambient air. After sixteen weeks of daily passive TS exposure, mice with TS exposure injury were treated with CSP7 at a dosage of 1.5 mg/kg body weight daily 5 days/week for the next four weeks. These mice were continued with daily exposure of 4 h of TS during CSP7 treatment. At the end of the experiment (after 20 weeks of TS exposure), the mice were euthanized, and lungs were utilized for further analyses. To expand the local delivery options of CSP7 to directly treat the damaged lung by air-jet milling for dry powder inhalation (DPI). Mice exposed to TSE were treated with CSP7 using a rotating brush generator for 15 min daily for 7 days. Fourteen days later, BLM mice were subjected to daily inhalation of micronized CSP7 (0.05 mg/kg/d) DP through air-jet-milling for seven consecutive days using a rotating brush exposure system. The rotating brush exposure system gave a consistent minimal chamber concentration of 0.1 mg/L. In order to match dosing of DP inhalation, animal exposure times were adjusted to approximately 15 minutes and an estimated dose of 0.05 mg/kg/d or 1.00 microgram/lung was administered.
(§4) To evaluate the effect of CSP7 against chronic BLM-induced PF, the mice were exposed to BLM (40 μg/20 g body weight) once every two weeks for 16 weeks as described elsewhere. (Tiwari et al, 2016). Control mice were exposed to normal saline. Fourteen weeks later the CSP7 at a dosage of 1.5 mg/kg body weight was administered by IP injection and continued daily basis for the next two weeks as described elsewhere. (Tiwari et al, 2016; Shetty et al, 2008b). At the end of the experiment, the mice were euthanized and lung tissues and isolated A2Cs from the extracted lung tissues were used for further analysis.

[1] = test system: A2Cs of WT mice with 8X-BLM-induced PF; assay: Repeated bleomycin (8X-BLM) induced PF in WT mice, A2C telomere analyses
Method: as §2, §4
Detection of telomerase activity. Telomerase activity was detected using a PCR-based telomeric repeat amplification protocol (TRAP) method using the TRAPeze Telomerase Detection Kit (Intergen, Purchase, NY, USA). Briefly, the cells were lysed in CHAPS lysis buffer and quantified by BCA method, and equal quantity of the protein samples was combined with the reaction mix in RNase-free PCR tubes. The PCR amplification was then performed following instruction of the manufacturer. The final PCR product was loaded onto a 12.5% non-denaturing polyacrylamide gel and subjected to electrophoresis. The polyacrylamide gel was stained with ethidium bromide and documented using a gel-doc unit (Bio-Rad Laboratories). The relative quantities of telomerase activity for each sample were calculated according to the instructions provided in the kit.
(§5) Measurement of terminal restriction fragment (telomeric) length. For the determination of telomeric length, the TeloTTAGGG Telomere Length Assay Kit (Roche Diagnostics GmbH) was used. Briefly, genomic DNA was isolated and digested with Hinf1/Rsa. The digested DNA fragments were then separated by electrophoresis on agarose gel followed by Southern blot transfer. The membrane was then hybridized with a telomere specific digoxigenin (DIG)-labelled probe, incubated with anti-DIG alkaline phosphatase, and documented with chemiluminescence detection in gel-doc unit (Bio-Rad Laboratories). Telomeric length was identified by comparing with the pre-labelled molecular weight marker. The relative telomere length was calculated according to the protocol provided. In addition, relative telomere length was analyzed by qPCR analysis of the genomic DNA. (Cawthon, Nucleic Acids Res 2002, 30:e47-e47; Alder et al, Proc Natl Acad Sci USA 2015, 112:5099-5104.) The 36B4 gene was served as the control.

[2] = test system: A2Cs of WT mice exposed to tobacco smoke; assay: Chronic passive tobacco smoke (20 weeks) lung injury in WT mice, A2C telomere analyses; settings: 20 weeks smoke
Method: Relative telomere length was also analyzed by qPCR analysis of the genomic DNA as described by Callicott R J et al., (Comp Med 2006; 56:17-22) and Cawthon RM (Nucleic Acids Res 2002; 30:e47-e47). The […] gene was served as the control.
as §3, with “administered. […]” for “administered.”
as §5

A2Cs of uPA^−/− mice = assay: Tobacco smoke or repeated bleomycin exposure of uPA-/- mice
Method: as §1, §2, §3, §4

**Q.** “FTTFTVT (listed as Homo sapiens) [CSP7, heptapeptide fragment of the caveolin-1 scaffolding domain peptide CSP]” was tested. Which “IHC TRF1 or TRF2 antigen expression” value (A2Cs of PAI-1^−/− mice) did it give?
**A.** minimal change in TRF1 or TRF2 antigen expression

**Q.** And the “telomerase enzyme activity (trapeze)” value (A2Cs of PAI-1^−/− mice)?
**A.** no significant change activity

**Q.** And the telomere length (A2Cs of PAI-1^−/− mice)?
**A.** no significant change in telomere length

**Q.** What about the “p53, Acp53, S15p53, cleaved caspase-3, β-galactosidase, SIAH1/2, PNUTS, TRF1, TRF2, TERT (Western blot)” value (A2Cs of PAI-1^−/− mice; PAI-1-deficient mice) of the same substance?
**A.** little or no difference

**Q.** And the “telomere length (qPCR)” value (A2Cs of PAI-1^−/− mice; PAI-1-deficient mice)?
**A.** minimal effect on telomere length

**Q.** What about the “p53, Acp53, S15p53, cleaved caspase-3, β-galactosidase in AT2 cells (Western blot)” value (A2Cs of PAI-1^−/− mice; PAI-1-deficient mice) of the same substance?
**A.** little or no difference

**Q.** And the “expression of p53 in A2Cs” value (A2Cs of PAI-1^−/− mice; PAI-1-deficient mice, TS or BLM)?
**A.** minimal effect

**Q.** What about the TERT enzyme activity ([1]; 8X-BLM PF) of the same substance?
**A.** significantly reversed

**Q.** And the “TRF1, TRF2, PNUTS and TERT expression in A2Cs” value ([1]; 8X-BLM PF)?
**A.** reversed

**Q.** What about the “p53, PAI-1, SIAH1/2, caspase-3 activation, β-galactosidase in A2Cs” value ([1]; 8X-BLM PF) of the same substance?
**A.** suppression

**Q.** And the “IHC of lung sections for TRF2, p53, PAI-1, TRF1” value ([1]; 8X-BLM PF (FIG. 25E))?
**A.** restoration of TRF2 expression with reduction in p53, PAI-1 and TRF1

**Q.** What about the “telomere length of A2Cs (qPCR)” value ([1]; 8X-BLM PF, treated two weeks) of the same substance?
**A.** improved

**Q.** And the “IHC of lung sections for TRF2, p53, PAI-1, TRF1” value [2]?
**A.** restoration of TRF2 expression with reduction in p53 and PAI-1 expression

**Q.** And the “SIAH-1 expression in A2Cs” value [2]?
**A.** Downregulation of SIAH-1 was significantly more; also recorded: markedly downregulated

**Q.** What about the “TRF2 and TERT expression in A2Cs” value [2] of the same substance?
**A.** restoration of TRF2 and TERT expression

**Q.** And the “p53, cleaved caspase-3 and β-galactosidase expression in A2Cs (Western blot)” value [2]?
**A.** significant decrease; also recorded: markedly suppressed

**Q.** What about the “TERT enzyme activity (TRAPeze assay)” value ([2]; vs CP group) of the same substance?
**A.** significantly higher

**Q.** What about the “relative telomere length of A2Cs (qPCR), telomere shortening” value ([2]; vs control peptide CP) of the same substance?
**A.** significant resistance in telomere shortening

**Q.** What about the “p53, ACp53, S15p53, apoptosis, senescence, PAI-1, SIAH1/2, TRF1, TRF2, PNUTS, TERT (Western blot)” value (A2Cs of uPA^−/− mice; uPA-/- mice, 8×BLM PF) of the same substance?
**A.** minimal effect

**Q.** And the “telomerase enzyme activity (trapeze)” value (A2Cs of uPA^−/− mice; uPA-/- mice, 8×BLM PF)?
**A.** failed to restore

**Q.** What about the “telomere length (qPCR)” value (A2Cs of uPA^−/− mice; uPA-/- mice, 8×BLM PF) of the same substance?
**A.** failed to restore telomere length

**Q.** What about the “telomere shortening (qPCR)” value (A2Cs of uPA^−/− mice; uPA-/- mice, 20 weeks TS) of the same substance?
**A.** failed to respond to CSP7 treatment

**Q.** And the telomere shortening (A2Cs of uPA^−/− mice; uPA-/- mice, 20 weeks smoke or repeated BLM, vs CP)?
**A.** did not show significant difference in telomere shortening

**Q.** And the “IHC of lung sections for TRF1” value (A2Cs of uPA^−/− mice; uPA-/- mice, TS)?
**A.** minimal inhibition

**Q.** And the “TRF1, TRF2 and TERT expression in A2Cs” value (A2Cs of uPA^−/− mice; uPA-/- mice, TS)?
**A.** no significant change

**Q.** And the “p53 modification/induction, active caspase-3, β-galactosidase (Western blot)” value (A2Cs of uPA^−/− mice; uPA-/- mice, TS)?
**A.** failed to inhibit post-translational modification or induction of p53, active caspase-3 or β-galactosidase

**Q.** What about the telomerase activity (A2Cs of uPA^−/− mice; uPA-/- mice, TS) of the same substance?
**A.** inability of CSP7 to reverse telomere shortening or improve telomerase activity

**Q.** And the “activation of p53, caspase-3, β-galactosidase (Western blot)” value (A2Cs of uPA^−/− mice; uPA-/- mice, smoke or BLM)?
**A.** failed to inhibit activation of p53, caspase-3 as well as β-galactosidase

**Q.** And the “telomerase enzyme activity (trapeze)” value (A2Cs of uPA^−/− mice; uPA-/- mice, smoke or BLM)?
**A.** did not restore the telomerase enzyme activity

**Q.** What about the “TRF1, TRF2 and TERT expression” value (A2Cs of uPA^−/− mice; uPA-/- mice, smoke or BLM, CSP7 vs CP groups) of the same substance?
**A.** no significant change

**Q.** And the “p53-induced PAI-1 expression or telomere dysfunction” value (A2Cs of uPA^−/− mice; uPA-deficient mice, TS- and 8×BLM-induced lung injury)?
**A.** failed to suppress p53-induced PAI-1 expression or telomere dysfunction

**Q.** Which results are given for “WGIDKAFFTTSTVTYKWFRY [CP, scrambled control peptide with the same amino acid composition as CSP, reference compound]”?
**A.** IHC TRF1 or TRF2 antigen expression (A2Cs of PAI-1^−/− mice): minimal change in TRF1 or TRF2 antigen expression; telomerase enzyme activity (trapeze) (A2Cs of PAI-1^−/− mice): no significant change activity; telomere length (A2Cs of PAI-1^−/− mice): no significant change in telomere length; p53, Acp53, S15p53, cleaved caspase-3, β-galactosidase, SIAH1/2, PNUTS, TRF1, TRF2, TERT (Western blot) (A2Cs of PAI-1^−/− mice; PAI-1-deficient mice): little or no difference; telomere length (qPCR) (A2Cs of PAI-1^−/− mice; PAI-1-deficient mice): minimal effect on telomere length; p53, Acp53, S15p53, cleaved caspase-3, β-galactosidase in AT2 cells (Western blot) (A2Cs of PAI-1^−/− mice; PAI-1-deficient mice): little or no difference; TERT enzyme activity ([1]; 8X-BLM PF): still displayed shortened telomere; TRF1, TRF2, PNUTS and TERT expression in A2Cs ([1]; 8X-BLM PF): still harbor A2Cs with shortened telomere; SIAH-1 expression in A2Cs [2]: still showed elevated p53 and SIAH-1; TRF1, TRF2 and TERT expression in A2Cs (A2Cs of uPA^−/− mice; uPA-/- mice, TS): no significant change
